According to patent US20080275105A1, “Selective Muscle Relaxant and Pharmaceutical Compositions” (UNIVERSIDADE FEDERAL DO RIO DE JANEIROUFRJ, priority 2004, published 2008):

Key:
[1] = system: left ventricle bundles of a rat heart; assay: Isometric tension in ventricular bundles; assay type: cell-based
Procedure: (§1) Once the experiments have been carried out, the findings were subject to statistical analyses being expressed in average ±SEM as a percentage of the control value, and graphs were drawn up using the Sigma Plot 5.0 program to represent the data obtained. For the statistical analysis of the effects on the different muscle tissues, the difference was assessed among the concentrations of the same derivative, using the “t” Student test. In order to ascertain the difference among the derivatives, the one-way ANOVA test was used. The differences were considered as significant for p<0.05. The Cl50 was expressed as an average ±SEM of the values obtained for each experiment through non-linear regression based on the y=yo+ae^−bx equation.
After anesthesia with ethyl ether, male Wistar rats weighing between 240-280 grams were sacrificed through cervical dislocation. The heart was removed rapidly and the papillary muscle and the ventricular bundles were dissected in Tyrode's solution, whose composition is given in Table 2 below, at room temperature. The muscles were placed in vertical chambers with a capacity of 10 mL and fixed at their extremities: the lower portion to a hook located in the stimulation electrode fixation rod and the upper portion connected to a power transducer (Grass FT03) for recording the muscle twitches.
The muscles were stimulated electrically with supra-maximum voltage (50-60 V) through a stimulator (Grass S88) at a frequency of 1.0 Hz. The signals captured by the transducer were amplified (Cyberamp 380, Axon Instruments) and the isometric tension was digitized (Digidata 1322A, Axon Instruments) and stored on a computer. The screening and analysis of the experiment was handled through the Axoscope 8.0 program (Axon Instruments) (Sudo & cols., 2001). The chamber solution was bubbled continuously with a carbogenic mixture (95% O2/5% CO2) and kept at a temperature of 37° C.
After the stabilization of the muscle twitches (approximately 30 min) the records were carried out in the absence (control) and presence of rising concentrations (10 to 100 μM) of the different L294 analogs, diluted in DMSO. The records were carried out in pairs (two papillary and two ventricle) thus allowing the control experiments to be carried out in one of the pairs, meaning with rising quantities of DMSO equivalent to those used to dilute the substances. The reversibility of the effect of the substances was investigated at the end of each experiment, noting the recovery of the muscle twitches after bathing the preparation with Tyrode's solution.

[2] = system: rat aorta rings with preserved endothelium; assay: KCl-induced contracture in aorta rings with preserved endothelium; assay type: cell-based; conditions: KCl 40 mM; for amplitude of the KCl contracture, with endothelium: 200 μM stated for L790; for IC50: Rattus norvegicus, with endothelium, six experiments, read-out: CI50 (μM) Average ± SEM
Procedure: as §1
(§2) Male Wistar rats weighing between 240-280 grams were sacrificed through dislocation of the cervical column under anesthesia using ethyl ether. The aorta artery was removed and transferred to a Petri dish containing modified Tyrode's solution whose composition is described in Table 3 below, where the vessel was cleaned and the connective tissue was removed. According to the scheduled Experiment Protocol, the vascular endothelium was removed mechanically with the assistance of a polyethylene rod. The artery was divided into rings with a width of 2-3 mm. Two hooks were placed in the wall of the vessel in order to record the tension generated by the muscle in a transversal direction. To do so, one of the hooks was tied to a fixed point in the chamber and the other to a power transducer (FT 03) for recording the isometric tension. The tension generated by the muscle was transformed into a digitized electric signal (Digidata 1322A) and stored in a computer for subsequent analysis using the Axoscope 8.0 program (Axon Instruments, Inc). The chamber was filled with Krebs solution, oxygenated and kept at a temperature of 37° C.
(§3) After stabilizing the preparation, approximately 120 minutes, the Experiment Protocol began. Initially, in order to identify the presence or absence of the vascular endothelium, the preparation was exposed to phenylephrine (10 μM) and when the contracture in response to this substance was stabilized, acetylcholine (10 μM) was added to the nutrient solution. Relaxation of over 80% in response to the acetylcholine indicated the full integrity of the endothelium and relaxation of less than 10% indicated the absence of endothelium. The tissues in which the relaxation intensity fell between >10% and <80% were discarded. In order to investigate the vasodilator effect of the different L294 analogs, they were added to the experiment chambers in rising concentration after the contracture stabilization of the vessel induced by phenylephrine. The tension registered after treatment with each of the L294 analog concentrations was normalized as a function of the amplitude of the contracture triggered by phenylephrine. For the purpose of comparing the potency of some of the L294 analogs, the Cl50 was determined for each experiment using the y=yo+ae^−bx equation and their mean was used for the statistical analysis.
The effects of the L294 analogs were investigated in rat aorta rings with preserved endothelium whose contracture was induced by increasing the extra-cellular concentration of KCl to 40 mM. Of the seven L294 analogs, this test was carried out only with the L785, L786, L789 and L790, in this group of experiments.

[3] = system: aorta rings with no preserved endothelium; assay: Phenylephrine-induced contracture in aorta rings without endothelium; assay type: cell-based, rat; conditions: for IC50: Rattus norvegicus, phenylephrine 10 μM, without endothelium, six experiments, read-out: CI50 (MM) Average ± SEM
Procedure: as §1, §2, §3
The importance of the presence of vascular endothelium in the vasodilatory action of the L294 analogs was assessed in experiments in which these cells were removed mechanically. […] When the findings of the experiments without the endothelium were analyzed as a whole, the absence of the L790 effect was confirmed. […] The maximum relaxation caused by the L787 and L789 analogs was less than 50% of the control, and the other analogs caused relaxation in the following decreasing order of efficacy: L785>L788>L786. Once again, attention is drawn to the marked efficiency of the L785 and L788 analogs.

tracheal rings of a rat = assay: Acetylcholine-induced contracture of trachea rings; assay type: cell-based; conditions: acetylcholine 10 μM; for muscle relaxation effect on trachea rings: cumulative concentrations up to 200 μM, result in words
Procedure: A preparation of trachea rings is used for observing the probable action of these powerful vasodilators in other smooth musculature tissues. FIG. 12 presents the typical record of the acetylcholine-induced trachea rings contracture (Ach, 10 μM) followed by exposure to rising cumulative concentrations of the L785 derivative up to 200 μM. A dose-dependent reduction may be noted in the amplitude of the acetylcholine-induced contracture.
The same protocol was used for the L786 derivative and the solvent (FIG. 13).

Row | SMILES | muscular response in ventricular bundles ([1]; concentration not given, alterations not greater than 10%) | amplitude of the KCl contracture, with endothelium [2] | IC50 [2] | relaxation of phenylephrine contracture, without endothelium ([3]; 100 μM, result in words) | IC50 [3] | muscle relaxation effect on trachea rings (tracheal rings of a rat) | muscle twitches / contractility in ventricular bundles ([1]; 100 μM) | amplitude of the acetylcholine-induced contracture of trachea rings (tracheal rings of a rat; 200 μM)
1 | CN(/N=C/c1cccs1)C(=O)c1ccc2c(c1)OCO2 [L785, 1,3-Benzodioxol-5-carboxylic acid, N-methyl-N′-[1-thiophene-2-yl-meth-(E)-ylidene]-hydrazide] | 96.5±3.8 % of the control | 8.1±3.8 % of the control | 34.1 ± 6.3 µM | relaxation was almost total | 18.5 ± 3.6 µM | significant dose-dependent muscle relaxation effect | – | –
2 | O=C(c1ccc2c(c1)OCO2)N(Cc1ccccc1)/N=C/c1cccs1 [L786, 1,3-Benzodioxol-5-carboxylic acid, N-benzyl-N′-[1-thiophene-2-yl-meth-(E)-ylidene]-hydrazide] | – | 51.1±2.8 % of the control | 127 ± 13.7 µM | – | 86.2 ± 7.1 µM | The same effect was not observed | 79.9±10.6 % of the control | 25.3±12.1 % of the control
